Among the data in patent US10844038B2, “1,2-dithiolane compounds useful in neuroprotection, autoimmune and cancer diseases and conditions” (SABILA BIOSCIENCES LLC, priority 2016, dated 2020) are Kd and IC50 values, retold here.

One test addresses MEK1 (Homo sapiens (Human), UniProt Q02750). As to the kind of experiment: KINOMEscan competition binding assay (Kd). Conditions: read-out: Kd Values Against MEK Kinases Isoforms: MEK1. As to the method: (§1) KINOMEscan™ is based on a competition binding assay that quantitatively measures the ability of a test compound of the invention to compete with an immobilized, active-site directed ligand. The Kinase assay is performed by combining three components: DNA-tagged kinase; immobilized ligand; and a test compound. The ability of the test compound to compete with the immobilized ligand is measured via quantitative PCR of the DNA tag.
(§2) For most assays, kinase-tagged T7 phage strains were prepared in an E. coli host derived from the BL21 strain. E. coli were grown to log-phase and infected with T7 phage and incubated with shaking at 32° C. until lysis. The lysates were centrifuged and filtered to remove cell debris. The remaining kinases were produced in HEK-293 cells and subsequently tagged with DNA for qPCR detection. Streptavidin-coated magnetic beads were treated with biotinylated small molecule ligands for 30 minutes at room temperature to generate affinity resins for kinase assays. The liganded beads were blocked with excess biotin and washed with blocking buffer (SeaBlock (Pierce), 1% BSA, 0.05% Tween 20, 1 mM DTT) to remove unbound ligand and to reduce nonspecific binding. […] All reactions were performed in polystyrene 96-well plates in a final volume of 0.135 ml. […] The kinase concentration in the eluates was measured by qPCR.

A further test deals with MEK5 (Homo sapiens (Human), UniProt Q13163). As to the kind of experiment: KINOMEscan competition binding assay (Kd). As to the method: as §1, §2
The target of the next test is mTOR (Homo sapiens (Human), UniProt P42345). Kind of test: KINOMEscan competition binding assay (Kd). To be noted: read-out: Kd Values Against mTOR Kinase: mTOR. As to the method:
as §1, §2

In another test the target is ARAF (Homo sapiens (Human), UniProt P10398). As to the kind of experiment: Radioisotope filter binding assay. The format is biochemical. To be noted: read-out: IC50 Activity Levels Against MAPK Pathway Kinases: ARAF. As to the method: (§3) 3. Radioisotope Filter Binding Assay:
(§4) In this assay format, it directly detects the true product without the use of modified substrates or coupling enzymes (Uitdehaag, J. C., et al. Br. J. Pharmacol. 2012, 166, 858-876; Hastie, C. J., et al. Nat. Protoc. 2006, 1, 968-971) according to equation 1. Substrate+[γ−^33P]−ATP→^33P-Substrate+ADP eq 1
(§5) The protocol calls for test compound of the invention to be incubated with kinase, substrate, cofactors, and radio-isotope-labeled ATP (^33P-gamma-ATP). The reaction mixtures are then spotted onto filter papers which bind the radioisotope labeled catalytic product. Unreacted phosphate is removed via washing. The reagents used include base reaction buffer; 20 mM Hepes (pH 7.5), 10 mM MgCl2, 1 mM EGTA, 0.02% Brij35, 0.02 mg/ml BSA, 0.1 mM Na3VO4, 2 mM DTT, 1% DMSO. The reaction procedure include the following steps: (1) prepare indicated substrate in freshly prepared base reaction buffer, (2) deliver any required cofactors to the substrate solution above, (3) deliver indicated kinase into the substrate solution and gently mix, (4) deliver compounds in DMSO into the kinase reaction mixture by Acoustic technology (Echo550; nanoliter range), incubate for 20 minutes at room temperature, (5) deliver ^33P-ATP (specific activity 10 μCi/μL) into the reaction mixture to initiate the reaction, (6) incubate kinase reaction for 2 hours at room temperature, (7) reactions are spotted onto P81 ion exchange paper, (8) detect kinase activity by filter-binding method.

For another test, the target named is BLK (Homo sapiens (Human), UniProt P51451). As to the kind of experiment: Radioisotope filter binding assay. The format is biochemical. To be noted: read-out: IC50 Activity Levels Against SRC Family Kinases: BLK. As to the method:
as §3, §4, §5

The next test has as its target BRK (Homo sapiens (Human), UniProt Q13882). As to the kind of experiment: Radioisotope filter binding assay. It is filed as biochemical. To be noted: read-out: IC50 Activity Levels Against FRK Family Kinases: BRK. As to the method:
as §3, §4, §5

For the next test, the target named is BTK (Homo sapiens (Human), UniProt Q06187). Kind of test: Radioisotope filter binding assay. It is filed as biochemical. To be noted: read-out: IC50 Activity Levels Against Representative TEC Family Kinases: BTK. As to the method:
as §3, §4, §5

The target of a further test is CRAP (Homo sapiens (Human), UniProt P04049). Kind of test: Radioisotope filter binding assay. The format is biochemical. Conditions: read-out: IC50 Activity Levels Against MAPK Pathway Kinases: CRAP. As to the method: as §3, §4, §5
For the next test, the target named is FGR (Homo sapiens (Human), UniProt P09769). Kind of test: Radioisotope filter binding assay. Conditions: read-out: IC50 Activity Levels Against SRC Family Kinases: FGR. The format is biochemical. As to the method: as §3, §4, §5
For another test, the target named is FLT3 (Homo sapiens (Human), UniProt P36888). As to the kind of experiment: Radioisotope filter binding assay. The format is biochemical. Conditions: read-out: IC50 Activity Levels Against Type III NRT Kinases: FLT3. As to the method: as §3, §4, §5
The target of the next test is FLT3-ITD. Kind of test: Radioisotope filter binding assay. Conditions: read-out: IC50 Activity Levels Against Type III NRT Kinases: FLT3-ITD. It is filed as biochemical. As to the method: as §3, §4, §5
Another test addresses FYN (Homo sapiens (Human), UniProt P06241). Kind of test: Radioisotope filter binding assay. The format is biochemical. To be noted: read-out: IC50 Activity Levels Against SRC Family Kinases: FYN. As to the method:
as §3, §4, §5

The target in a further test is FYN-Y531F (Homo sapiens (Human), UniProt P06241, Y531F). Kind of test: Radioisotope filter binding assay. The format is biochemical. Conditions: read-out: IC50 Activity Levels Against FYN Mutant: FYN-Y531F. As to the method: as §3, §4, §5
The target in another test is HCK (Homo sapiens (Human), UniProt P08631). Kind of test: Radioisotope filter binding assay. The format is biochemical. Conditions: read-out: IC50 Activity Levels Against SRC Family Kinases: HCK. As to the method: as §3, §4, §5
The next test has as its target LCK (Homo sapiens (Human), UniProt P06239). Kind of test: Radioisotope filter binding assay. Conditions: read-out: IC50 Activity Levels Against SRC Family Kinases: LCK. The format is biochemical. As to the method:
as §3, §4, §5

The target of the next test is LYN (Homo sapiens (Human), UniProt P07948). As to the kind of experiment: Radioisotope filter binding assay. It is filed as biochemical. Conditions: read-out: IC50 Activity Levels Against SRC Family Kinases: LYN. As to the method: as §3, §4, §5
A further test has as its target SRC (Homo sapiens (Human), UniProt P12931). As to the kind of experiment: Radioisotope filter binding assay. The format is biochemical. To be noted: read-out: IC50 Activity Levels Against SRC Family Kinases: SRC. As to the method: as §3, §4, §5
Test [1] deals with T1, YES1 (Homo sapiens (Human), UniProt P07947). Kind of test: Radioisotope filter binding assay. To be noted: read-out: IC50 Activity Levels Against SRC Family Kinases: YES1. The format is biochemical. As to the method:
as §3, §4, §5

The target of test [2] is T1, YES1. As to the kind of experiment: Kinase binding assay CaPBA. To be noted: read-out: IC50 Activity Levels Against FYN isoforms, YES1 and MEK5: YES1. The text has this: 4. Kinase Binding Assay CaPBA:
[3] abbreviates: Table 12, read-out: Kd Values Against MEK Kinases Isoforms: MEK5.

Where two headings read alike, the source gives them in different places. Some results are limits rather than exact numbers.

Chain of LCK (P06239 whole entry): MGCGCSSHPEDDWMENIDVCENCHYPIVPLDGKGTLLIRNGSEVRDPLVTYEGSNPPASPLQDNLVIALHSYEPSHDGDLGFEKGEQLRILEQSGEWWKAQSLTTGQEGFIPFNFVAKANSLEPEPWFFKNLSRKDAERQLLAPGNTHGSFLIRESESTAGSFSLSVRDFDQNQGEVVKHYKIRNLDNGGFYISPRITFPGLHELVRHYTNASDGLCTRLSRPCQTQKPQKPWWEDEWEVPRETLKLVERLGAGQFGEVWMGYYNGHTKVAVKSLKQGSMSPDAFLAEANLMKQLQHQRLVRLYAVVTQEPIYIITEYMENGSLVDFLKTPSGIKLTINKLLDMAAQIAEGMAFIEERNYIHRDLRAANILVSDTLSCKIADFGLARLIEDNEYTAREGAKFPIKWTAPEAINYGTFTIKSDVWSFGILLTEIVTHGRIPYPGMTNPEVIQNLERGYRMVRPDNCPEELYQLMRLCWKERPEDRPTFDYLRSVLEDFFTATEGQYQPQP
Chain of FYN (P06241 whole entry): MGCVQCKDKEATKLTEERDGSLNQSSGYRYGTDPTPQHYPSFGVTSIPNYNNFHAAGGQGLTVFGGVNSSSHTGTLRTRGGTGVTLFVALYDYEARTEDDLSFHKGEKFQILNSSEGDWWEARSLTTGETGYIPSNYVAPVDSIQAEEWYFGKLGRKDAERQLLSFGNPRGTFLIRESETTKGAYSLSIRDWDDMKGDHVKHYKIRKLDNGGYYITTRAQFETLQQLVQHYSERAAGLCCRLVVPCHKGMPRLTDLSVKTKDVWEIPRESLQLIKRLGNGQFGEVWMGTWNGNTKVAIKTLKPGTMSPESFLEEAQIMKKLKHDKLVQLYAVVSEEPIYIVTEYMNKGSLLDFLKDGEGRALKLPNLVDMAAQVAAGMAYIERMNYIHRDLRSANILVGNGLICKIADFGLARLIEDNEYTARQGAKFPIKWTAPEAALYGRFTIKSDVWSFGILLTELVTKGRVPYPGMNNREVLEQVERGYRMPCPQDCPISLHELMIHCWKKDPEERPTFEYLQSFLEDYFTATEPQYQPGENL
Chain of BTK (Q06187 whole entry): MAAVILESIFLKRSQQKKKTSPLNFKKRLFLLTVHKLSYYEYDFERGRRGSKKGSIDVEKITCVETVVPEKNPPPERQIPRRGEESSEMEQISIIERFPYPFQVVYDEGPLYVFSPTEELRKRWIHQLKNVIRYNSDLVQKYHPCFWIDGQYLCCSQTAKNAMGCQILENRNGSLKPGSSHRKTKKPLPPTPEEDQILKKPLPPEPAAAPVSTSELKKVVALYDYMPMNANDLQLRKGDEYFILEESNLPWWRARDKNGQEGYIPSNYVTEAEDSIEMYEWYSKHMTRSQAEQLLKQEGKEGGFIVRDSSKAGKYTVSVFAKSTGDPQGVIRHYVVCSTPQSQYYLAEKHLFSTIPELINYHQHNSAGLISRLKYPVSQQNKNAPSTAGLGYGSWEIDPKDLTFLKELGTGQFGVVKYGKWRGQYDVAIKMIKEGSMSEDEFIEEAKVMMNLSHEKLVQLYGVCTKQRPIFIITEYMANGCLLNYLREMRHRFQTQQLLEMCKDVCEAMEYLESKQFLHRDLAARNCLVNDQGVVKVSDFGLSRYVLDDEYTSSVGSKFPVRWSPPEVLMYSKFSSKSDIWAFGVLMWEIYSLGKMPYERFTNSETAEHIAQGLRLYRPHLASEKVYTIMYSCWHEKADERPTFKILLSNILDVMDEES
Chain of HCK (P08631 whole entry): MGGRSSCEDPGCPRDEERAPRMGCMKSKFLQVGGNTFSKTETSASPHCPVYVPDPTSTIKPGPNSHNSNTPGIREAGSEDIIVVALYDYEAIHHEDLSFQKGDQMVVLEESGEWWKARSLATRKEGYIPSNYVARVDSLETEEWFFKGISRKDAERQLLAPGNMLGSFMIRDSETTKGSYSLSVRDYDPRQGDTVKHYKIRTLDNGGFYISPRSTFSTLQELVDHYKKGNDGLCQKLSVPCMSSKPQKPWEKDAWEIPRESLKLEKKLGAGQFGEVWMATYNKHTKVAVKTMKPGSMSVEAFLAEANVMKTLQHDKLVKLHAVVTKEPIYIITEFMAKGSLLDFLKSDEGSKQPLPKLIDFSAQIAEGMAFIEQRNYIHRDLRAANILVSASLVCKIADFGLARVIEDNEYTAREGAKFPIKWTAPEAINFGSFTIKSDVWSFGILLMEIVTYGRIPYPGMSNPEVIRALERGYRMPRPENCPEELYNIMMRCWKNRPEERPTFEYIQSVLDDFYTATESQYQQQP
Chain of FGR (P09769 whole entry): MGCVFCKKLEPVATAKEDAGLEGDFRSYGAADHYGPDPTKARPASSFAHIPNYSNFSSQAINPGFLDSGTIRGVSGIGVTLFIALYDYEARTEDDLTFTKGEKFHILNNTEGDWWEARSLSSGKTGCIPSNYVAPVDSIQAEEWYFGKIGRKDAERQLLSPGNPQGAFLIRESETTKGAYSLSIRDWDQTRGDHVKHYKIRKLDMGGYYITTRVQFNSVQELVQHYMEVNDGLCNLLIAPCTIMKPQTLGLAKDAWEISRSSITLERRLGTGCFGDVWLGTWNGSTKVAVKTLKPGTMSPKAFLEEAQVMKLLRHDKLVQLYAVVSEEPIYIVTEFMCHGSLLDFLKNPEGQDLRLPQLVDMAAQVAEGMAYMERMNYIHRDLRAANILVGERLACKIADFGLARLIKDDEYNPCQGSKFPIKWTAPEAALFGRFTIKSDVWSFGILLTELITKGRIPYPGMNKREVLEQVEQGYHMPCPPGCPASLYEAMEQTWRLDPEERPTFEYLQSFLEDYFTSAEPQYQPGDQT
Chain of MEK5 (Q13163 whole entry): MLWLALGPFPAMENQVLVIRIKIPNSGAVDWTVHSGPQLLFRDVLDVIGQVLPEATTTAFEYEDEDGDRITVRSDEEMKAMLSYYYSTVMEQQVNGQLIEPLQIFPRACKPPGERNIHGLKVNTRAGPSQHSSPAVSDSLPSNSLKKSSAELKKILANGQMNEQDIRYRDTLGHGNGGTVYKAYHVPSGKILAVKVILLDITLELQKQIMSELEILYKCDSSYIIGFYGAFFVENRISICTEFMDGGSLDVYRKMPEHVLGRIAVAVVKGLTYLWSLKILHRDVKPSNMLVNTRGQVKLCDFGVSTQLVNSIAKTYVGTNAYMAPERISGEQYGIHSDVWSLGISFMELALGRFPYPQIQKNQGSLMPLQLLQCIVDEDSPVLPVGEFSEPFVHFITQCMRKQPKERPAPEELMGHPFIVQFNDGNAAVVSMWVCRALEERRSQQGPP
Chain of FYN-Y531F (P06241 whole entry Y531F): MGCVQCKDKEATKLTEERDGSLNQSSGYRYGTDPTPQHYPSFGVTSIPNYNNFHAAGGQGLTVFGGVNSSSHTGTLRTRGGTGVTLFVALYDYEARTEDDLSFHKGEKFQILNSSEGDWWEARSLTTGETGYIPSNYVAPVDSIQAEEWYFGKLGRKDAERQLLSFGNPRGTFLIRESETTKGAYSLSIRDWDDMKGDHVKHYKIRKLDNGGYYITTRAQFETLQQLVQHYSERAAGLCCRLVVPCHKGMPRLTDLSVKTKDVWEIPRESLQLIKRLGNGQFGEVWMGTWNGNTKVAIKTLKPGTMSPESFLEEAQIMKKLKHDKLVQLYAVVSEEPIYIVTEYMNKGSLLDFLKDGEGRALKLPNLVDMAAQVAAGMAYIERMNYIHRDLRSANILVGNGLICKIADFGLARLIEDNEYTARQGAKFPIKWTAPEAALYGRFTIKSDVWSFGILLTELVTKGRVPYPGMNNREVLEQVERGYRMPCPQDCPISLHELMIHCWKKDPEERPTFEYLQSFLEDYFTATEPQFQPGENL
Chain of FLT3 (P36888 27-993): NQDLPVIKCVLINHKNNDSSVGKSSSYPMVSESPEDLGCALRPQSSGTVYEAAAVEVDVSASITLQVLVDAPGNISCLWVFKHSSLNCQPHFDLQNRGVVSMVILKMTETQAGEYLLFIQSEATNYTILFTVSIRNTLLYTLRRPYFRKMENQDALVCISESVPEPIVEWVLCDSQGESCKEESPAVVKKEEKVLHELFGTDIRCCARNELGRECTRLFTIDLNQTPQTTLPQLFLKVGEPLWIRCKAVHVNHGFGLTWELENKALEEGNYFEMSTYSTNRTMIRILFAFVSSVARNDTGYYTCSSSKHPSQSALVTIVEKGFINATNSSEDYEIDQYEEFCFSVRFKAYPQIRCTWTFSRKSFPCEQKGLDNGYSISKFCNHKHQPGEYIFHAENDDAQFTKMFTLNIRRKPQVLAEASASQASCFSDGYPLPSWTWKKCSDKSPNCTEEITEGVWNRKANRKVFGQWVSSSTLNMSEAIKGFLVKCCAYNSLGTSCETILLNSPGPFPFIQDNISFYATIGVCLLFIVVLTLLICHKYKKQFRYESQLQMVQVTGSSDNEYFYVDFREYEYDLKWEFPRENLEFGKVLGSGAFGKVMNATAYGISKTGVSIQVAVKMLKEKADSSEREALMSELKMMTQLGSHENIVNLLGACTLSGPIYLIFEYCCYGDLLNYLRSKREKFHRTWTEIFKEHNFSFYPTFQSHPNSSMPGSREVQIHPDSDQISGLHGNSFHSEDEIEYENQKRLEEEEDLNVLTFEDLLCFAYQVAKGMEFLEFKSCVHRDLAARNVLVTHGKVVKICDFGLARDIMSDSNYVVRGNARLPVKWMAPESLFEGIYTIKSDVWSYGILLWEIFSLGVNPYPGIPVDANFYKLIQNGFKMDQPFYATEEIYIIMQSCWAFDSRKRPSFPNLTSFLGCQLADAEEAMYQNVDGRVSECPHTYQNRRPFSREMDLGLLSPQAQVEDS

The Kd is a measure of binding affinity in units of concentration. As usually defined, the IC50 is the concentration at which inhibition is half-maximal. Regarding `Nc1ncnc2c1c(-c1ccc(Oc3ccccc3)cc1)nn2C[C@H]1SSC[C@H]1O` [46 B.], the Kd on MEK1 was 5 to 99 nM; at MEK5 (setting [3]), less than 5 nM; on mTOR, 100 to 999 nM. In addition, the IC50 on ARAF is 100 to 999 nM; at BLK, less than 5 nM; at BRK, 5 to 99 nM; on BTK, 5 to 99 nM; on CRAP, 1000 to 10000 nM; on FGR, less than 5 nM. The half-maximal inhibitory concentration (IC50) on FLT3 was 5 to 99 nM; at FLT3-ITD it was 100 to 999 nM; at FYN, less than 5 nM; at FYN-Y531F, 5 to 99 nM; at HCK, 5 to 99 nM; on LCK it was less than 5 nM. The IC50 on LYN was 5 to 99 nM; at SRC, 5 to 99 nM; on YES1 [1], less than 5 nM; on YES1 [2], less than 5 nM.
On to `Nc1ncnc2c1c(-c1ccc(Oc3ccccc3)cc1)nn2C[C@@H]1SSC[C@H]1O` [43 A.], for which the equilibrium dissociation constant (Kd) at MEK5 (Table 9, read-out: Kd Values Against Representative MEK5 Kinase: MEK5) was less than 5 nM; at mTOR, 1000 to 10000 nM. The IC50 on ARAF was 100 to 999 nM; on BLK it was less than 5 nM; at BRK, 5 to 99 nM; on BTK it was 5 to 99 nM; on CRAP it was 1000 to 10000 nM; on FGR it was less than 5 nM. Moreover, the IC50 on FLT3 was 5 to 99 nM; on FLT3-ITD it was 100 to 999 nM; on FYN, less than 5 nM; at FYN-Y531F, 5 to 99 nM; at HCK, less than 5 nM; on LCK, less than 5 nM. The IC50 is 5 to 99 nM on LYN, 100 to 999 nM on SRC, less than 5 nM at YES1 [1] and less than 5 nM on YES1 [2].
Turning to `Nc1ncnc2c1c(-c1ccc(Oc3ccccc3)cc1)nn2C[C@@H]1SSC[C@@H]1O` [46 A.], the Kd is 100 to 999 nM at MEK1, less than 5 nM on MEK5 (setting [3]) and 100 to 999 nM at mTOR. For the same compound, the IC50 was in the range of 1000 to 10000 nM on ARAF; 5 to 99 nM on BLK; 5 to 99 nM on BRK; 5 to 99 nM on BTK; 1000 to 10000 nM at CRAP; 5 to 99 nM on FGR. Further, the IC50 was in the range of 5 to 99 nM at FLT3; 100 to 999 nM at FLT3-ITD; 5 to 99 nM at FYN; 5 to 99 nM at FYN-Y531F; 5 to 99 nM at HCK; 5 to 99 nM on LCK. The IC50 is 100 to 999 nM at LYN, 100 to 999 nM on SRC and less than 5 nM on YES1 [1].
In the case of `Nc1ncnc2c1c(-c1ccc(Oc3ccccc3)cc1)nn2C[C@H]1SSC[C@@H]1O` [43 B.], the results for the Kd at MEK1, at MEK5 (setting [3]) and at mTOR were 5 to 99 nM, less than 5 nM and 100 to 999 nM, respectively. The IC50 at BLK was 5 to 99 nM; on BRK, 5 to 99 nM; on BTK, 5 to 99 nM; on FGR it was less than 5 nM; on FLT3, 100 to 999 nM; at FLT3-ITD, 100 to 999 nM. Further, the IC50 at FYN is less than 5 nM; on FYN-Y531F, 100 to 999 nM; on HCK it was less than 5 nM; at LCK, less than 5 nM; at LYN, 5 to 99 nM; on SRC, 5 to 99 nM. Moreover, the IC50 on YES1 [1] and at YES1 [2] was less than 5 nM throughout.
